Patent US20110293545A1, “Dolichos Biflorus Extract For Use In Cosmetic Skin Treatment” (Cognis IP Management GmbH, priority 2009, published 2011)

Key:
Assay type in all cases: cell-based
[1] = tested on: collagen I; assay: Stimulation of collagen I production (ELISA of released collagen peptides, Bradford cell proteins); conditions: dose 20 μg/ml; 72 hours; human dermal fibroblasts
Procedure: The purpose of this assay was the evaluation of the potential of Dolichos biflorus seed extract to increase the level of collagen I. Human dermal fibroblasts (from skin of aesthetic surgery) were cultivated in growth medium (DMEM Invitrogen N° 41965-039 with FCS at 10% (v/v)) for 24 hours at 37° C. […] The amount of cellular proteins was determined on cell homogenate (in a solution of NaOH 0.1 N) by the Bradford's method. The quantity of synthesized type I collagen was determined by measuring the amount of released collagen peptides in cell culture medium by an ELISA method (kit […]° from Osteomedical). They are expressed in % protein referring to the control (=standard medium with cells).

[2] = tested on: COL5A1; assay: qRT-PCR of collagen V encoding gene COL5A1 in human dermal fibroblasts; conditions: 10 ng/ml, with carrier protein; 24 h incubation; relative to EF1α
Procedure: (§1) This test was performed to evaluate the stimulation efficacy of a Dolichos biflorus extract according to example 3 on the expression of collagen V encoding genes in human fibroblasts. As 2 genes are responsible of the production of collagen V, namely the genes COL5A1 and COL5A2, both gene expressions were analysed.
(§2) Human dermal fibroblasts (obtained from plastic surgery) were inoculated in standard DMEM medium of cell culture with 10% FCS (Invitrogen). When cell confluence was arisen, the substances to be tested were introduced in new DMEM without FCS. Fibroblasts were incubated during 24 h with the test substances, then total RNA was extracted using a commercial extraction kit (Nucleospin™ RNA II, Macherey-Nagel™, France). Quantification and quality control of total RNA were performed by measuring […] at 260 and 280 nm. […]
(§3) The reverse transcription step was performed with a reverse transcription (RT) kit (ThermoScript™ RT-PCR System, Invitrogen, France) using 0.1 μg of total RNA in a 20 μl final volume. The quantitative PCRs were performed on 2 μl of the RT mix with specific primers in a 20 μl final volume, according to the manufacturer's informations (LightCycler®480 SYBR Green I Master, Roche, France). […] Results, expressed as percentage RNA compared to the control, are the mean of three independent assays (table 3). […]

[3] = tested on: COL5A2; assay: qRT-PCR of collagen V encoding gene COL5A2 in human dermal fibroblasts; conditions: 10 ng/ml, with carrier protein; 24 h incubation; relative to EF1α
Procedure: as §1, §2, §3

Compound | Cell proteins [1] [% protein against control] | Released type I collagen [1] [% protein against control] | RNA level of COL5A1 [2] [%/control] | RNA level of COL5A2 [3] [%/control]
O=C1O[C@H]([C@@H](O)CO)C(O)=C1O [Vitamin C] | 77.3 | 118.3 |  | 
TGF-β1: growth factor, positive reference; strong transcription activator of collagen genes; added with a carrier protein |  |  | 567 | 171
